Test results taken from ChEMBL document CHEMBL1201862, “PubChem BioAssay data set” (2004).
Active and inactive are the calls of the source.

Tests used:
[1] = target: T1, Ubiquitin-conjugating enzyme E2 N (Homo sapiens, UniProt P61088); format: functional;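 note: Dose-response confirmation in a TR-FRET assay detecting UBC13-driven polyubiquitin chain formation, inhibition measured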
T1 sequence (P61088 whole entry): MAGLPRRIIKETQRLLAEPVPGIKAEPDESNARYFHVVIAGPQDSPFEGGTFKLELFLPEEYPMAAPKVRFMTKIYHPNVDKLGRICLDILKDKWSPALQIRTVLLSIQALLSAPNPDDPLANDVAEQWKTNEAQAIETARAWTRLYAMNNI

[2] = target: T2, Acyl-homoserine lactone acylase PvdQ (Pseudomonas aeruginosa (strain LESB58), UniProt Q9I194); experiment: P. aeruginosa PvdQ acylase inhibitors, dose response, biochemical, fluorescence, plate reader and imaging, cherry-picks (AID 493231)
T2 sequence (Q9I194 whole entry): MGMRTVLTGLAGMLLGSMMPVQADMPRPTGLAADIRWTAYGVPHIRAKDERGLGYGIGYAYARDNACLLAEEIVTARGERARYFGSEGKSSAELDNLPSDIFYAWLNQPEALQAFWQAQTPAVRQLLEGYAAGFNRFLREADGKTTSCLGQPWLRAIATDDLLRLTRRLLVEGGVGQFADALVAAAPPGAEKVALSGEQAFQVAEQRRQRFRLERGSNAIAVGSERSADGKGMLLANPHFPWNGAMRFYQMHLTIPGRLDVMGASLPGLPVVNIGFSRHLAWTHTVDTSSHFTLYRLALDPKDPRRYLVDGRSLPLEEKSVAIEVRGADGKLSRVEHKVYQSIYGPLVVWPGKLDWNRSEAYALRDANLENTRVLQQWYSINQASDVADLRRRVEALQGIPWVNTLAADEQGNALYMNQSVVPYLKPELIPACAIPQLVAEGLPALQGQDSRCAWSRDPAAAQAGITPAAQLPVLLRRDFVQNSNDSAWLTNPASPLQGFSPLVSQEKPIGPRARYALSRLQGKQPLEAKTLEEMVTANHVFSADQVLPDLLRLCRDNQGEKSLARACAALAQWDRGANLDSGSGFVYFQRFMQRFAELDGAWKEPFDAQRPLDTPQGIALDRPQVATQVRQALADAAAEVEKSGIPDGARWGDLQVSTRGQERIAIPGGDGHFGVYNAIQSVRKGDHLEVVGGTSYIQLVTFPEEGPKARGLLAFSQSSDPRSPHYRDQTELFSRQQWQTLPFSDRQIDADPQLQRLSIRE

BJ [3] = experiment: cytotoxicity toward BJ-TERT fibroblasts, dose response, cell-based, RAS-independent, luminescence (AID 1933); format: functional; settings: Homo sapiens
[4] = cytotoxicity in HEK-293T cells, dose response, cytotoxicity control for TCR NF-kB inhibitor project, luminescence, T-cell screen hits (AID 489026); format: functional, cell-based;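 note: cells exposed to compound about 14 hours before the viability readout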
[5] = inhibitors of SNCA 5'UTR-driven translation, confirmation, luminescence, H4 neuroglioblastoma cells, dose confirmation (AID 2454); format: functional, cell-based;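 note: H4 neuroglioblastoma cells carrying an alpha-synuclein 5'UTR luciferase reporter; potency for inhibition of the luciferase signal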
cells = format: functional, cell-based
[6] = luciferase reporter signal reduction – luminescence, H4-C neuroglioblastoma cells, dose response (AID 2458); format: functional, cell-based;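 note: H4 neuroglioblastoma cells stably carrying a luciferase reporter gene fusion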
[7] = inhibitors of SNCA 5'UTR-driven reporter translation, confirmation, H4 neuroglioma cells, luminescence (AID 1988); format: functional, cell-based
BJ [8] = experiment: cells; format: functional, cell-based; settings: Homo sapiens
CAAX prenyl protease 2 = target: T3, CAAX prenyl protease 2 (Homo sapiens, UniProt Q9Y256); experiment: human Rce1 protease inhibitors, dose response, biochemical, yeast membranes, quenched-peptide fluorescence, cherry-pick (AID 588849)
T3 sequence (Q9Y256 whole entry): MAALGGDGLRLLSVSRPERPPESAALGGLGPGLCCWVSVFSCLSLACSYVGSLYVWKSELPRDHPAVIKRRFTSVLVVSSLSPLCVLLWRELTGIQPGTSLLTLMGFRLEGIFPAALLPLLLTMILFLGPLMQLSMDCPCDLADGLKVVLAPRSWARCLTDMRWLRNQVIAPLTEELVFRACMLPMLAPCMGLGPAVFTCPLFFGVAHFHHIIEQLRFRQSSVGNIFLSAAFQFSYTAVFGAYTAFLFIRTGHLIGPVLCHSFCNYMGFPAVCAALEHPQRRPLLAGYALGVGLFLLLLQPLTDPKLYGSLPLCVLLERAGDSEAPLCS

[9] = cytotoxicity toward DRD oncogenic fibroblasts, dose response, cell-based, non-viral oncogenic, luminescence (AID 1934); format: functional; settings: Homo sapiens
[10] = inhibitors of firefly luciferase expression or activity, dose response, H4 neuroglioma cells, luminescence (AID 1990); format: functional, cell-based
Aspartyl aminopeptidase = target: T4, Aspartyl aminopeptidase (Plasmodium falciparum 3D7, UniProt Q8I2J3); experiment: Counterscreen for inhibitors of M1 and M17 aminopeptidases: QFRET-based biochemical high throughput dose response assay for inhibitors of the Plasmodium falciparum M18 Aspartyl Aminopeptidase (PFM18AAP). [Related PubChem assays: 1619 (Screening assay (M17LAP inhibitors).), 1445 (Screening assay (M1AAP inhibitors).)]
T4 sequence (Q8I2J3 whole entry): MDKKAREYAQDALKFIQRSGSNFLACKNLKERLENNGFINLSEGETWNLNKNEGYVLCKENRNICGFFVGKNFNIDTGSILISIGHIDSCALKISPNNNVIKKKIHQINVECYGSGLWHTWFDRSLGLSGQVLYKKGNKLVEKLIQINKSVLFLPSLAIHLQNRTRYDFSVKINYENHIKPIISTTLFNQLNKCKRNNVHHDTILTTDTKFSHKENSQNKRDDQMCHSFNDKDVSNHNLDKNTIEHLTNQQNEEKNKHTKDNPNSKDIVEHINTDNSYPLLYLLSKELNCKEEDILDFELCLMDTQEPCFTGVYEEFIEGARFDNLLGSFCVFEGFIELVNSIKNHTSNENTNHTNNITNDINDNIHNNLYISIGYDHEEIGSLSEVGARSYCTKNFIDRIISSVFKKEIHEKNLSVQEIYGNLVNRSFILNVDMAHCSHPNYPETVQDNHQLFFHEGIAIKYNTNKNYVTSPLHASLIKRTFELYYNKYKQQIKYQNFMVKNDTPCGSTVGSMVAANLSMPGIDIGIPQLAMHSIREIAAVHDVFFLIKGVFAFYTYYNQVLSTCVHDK

Procathepsin L = Procathepsin L (Homo sapiens, UniProt P07711); experiment: cathepsin L inhibitors, dose response, counter-screen for M1/M17 aminopeptidase inhibitor project, biochemical, QFRET, 1536-well (AID 2214)
Leucine aminopeptidase = target: T5, Leucine aminopeptidase (Plasmodium falciparum 3D7, UniProt Q8IL11); experiment: P. falciparum M17LAP inhibitors, primary screen, biochemical, fluorogenic H-Leu-NHMec substrate, 1536-well (AID 1619); format: functional
T5 sequence (Q8IL11 whole entry): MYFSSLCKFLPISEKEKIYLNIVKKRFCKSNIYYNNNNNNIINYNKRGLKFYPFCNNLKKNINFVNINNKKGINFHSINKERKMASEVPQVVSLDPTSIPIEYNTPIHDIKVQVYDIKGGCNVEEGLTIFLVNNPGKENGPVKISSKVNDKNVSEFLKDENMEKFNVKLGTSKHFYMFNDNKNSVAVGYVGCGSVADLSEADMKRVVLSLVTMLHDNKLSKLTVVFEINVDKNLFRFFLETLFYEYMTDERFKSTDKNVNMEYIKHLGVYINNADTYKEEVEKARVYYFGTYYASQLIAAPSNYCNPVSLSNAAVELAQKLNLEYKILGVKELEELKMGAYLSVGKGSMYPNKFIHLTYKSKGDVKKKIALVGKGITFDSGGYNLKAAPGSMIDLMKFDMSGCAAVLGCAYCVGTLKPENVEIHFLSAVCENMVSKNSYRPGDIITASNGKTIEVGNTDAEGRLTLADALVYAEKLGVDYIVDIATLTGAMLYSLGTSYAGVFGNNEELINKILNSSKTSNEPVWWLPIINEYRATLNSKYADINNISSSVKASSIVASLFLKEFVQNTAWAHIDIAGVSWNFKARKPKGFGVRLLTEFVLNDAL

[11] = A cytotoxicity screen of small molecule inhibitors of the PhoP region in Salmonella typhi identified in the primary screen. [Related pubchem assays: 1850, 1864, 1985 ]; format: functional
[12] = target: Eukaryotic translation initiation factor 4E (Mus musculus, UniProt P63073); experiment: eIF4E–eIF4G protein interaction inhibitors, dose response, biochemical, TR-FRET (AID 855); format: functional;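 note: potency for disrupting eIF4E binding to eIF4GI seen as loss of FRET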
Chain of Eukaryotic translation initiation factor 4E (P63073 whole entry): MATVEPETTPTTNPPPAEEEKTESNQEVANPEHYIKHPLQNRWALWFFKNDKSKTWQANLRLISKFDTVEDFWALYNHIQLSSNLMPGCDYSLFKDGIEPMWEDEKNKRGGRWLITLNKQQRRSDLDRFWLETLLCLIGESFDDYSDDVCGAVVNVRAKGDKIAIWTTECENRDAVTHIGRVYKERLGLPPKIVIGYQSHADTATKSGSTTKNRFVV

Chain of Procathepsin L (P07711 whole entry): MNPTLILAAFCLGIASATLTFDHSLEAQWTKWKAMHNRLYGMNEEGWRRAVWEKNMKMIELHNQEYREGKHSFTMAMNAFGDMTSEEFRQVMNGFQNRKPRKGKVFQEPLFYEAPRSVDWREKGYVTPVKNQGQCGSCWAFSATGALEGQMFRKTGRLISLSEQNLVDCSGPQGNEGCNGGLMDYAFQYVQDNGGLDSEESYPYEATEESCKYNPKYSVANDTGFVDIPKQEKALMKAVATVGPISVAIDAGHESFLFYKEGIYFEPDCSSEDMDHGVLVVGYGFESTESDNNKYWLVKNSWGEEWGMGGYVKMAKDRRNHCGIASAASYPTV

**Q.** With `COc1cccc(Cn2cnc3c([N+](=O)[O-])c(C)c(C)cc32)c1` as the compound, how does the IC50 [1] read?
**A.** > 20 µM (inactive)

**Q.** With `Cc1cc(NC(=O)c2cc([N+](=O)[O-])ccc2Cl)no1` as the compound, how does the AC50 [2] read?
**A.** 3.71 µM (active)

**Q.** Which EC50 (BJ [3]) does the source give for `COc1ccccc1-c1nnc2sc(-c3ccc(N(C)C)cc3)nn12` here?
**A.** 0.179 µM (active)

**Q.** And the IC50 [4]?
**A.** > 80 µM (inactive)

**Q.** What about the EC50 [5] of the same compound?
**A.** 0.179 µM (active)

**Q.** And the EC50 (cells)?
**A.** 0.29 µM (active)

**Q.** And the EC50 [6]?
**A.** 0.143 µM (active)

**Q.** And the EC50 [7]?
**A.** < 0.1 µM (active)

**Q.** What about the EC50 (BJ [8]) of the same compound?
**A.** 0.637 µM (active)

**Q.** What about the AC50 (CAAX prenyl protease 2) of the same compound?
**A.** 1.02 µM (active)

**Q.** What about the EC50 [9] of the same compound?
**A.** 0.202 µM (active)

**Q.** And the EC50 [10]?
**A.** < 0.1 µM (active)

**Q.** With `CCOc1ccc(C(=O)Nc2cccc(C)n2)cc1` as the compound, how does the AC50 [2] read?
**A.** 19.3 µM (active)

**Q.** Which IC50 (Aspartyl aminopeptidase) does the source give for `COc1ccc(NC(=O)CSc2nc(O)cc(=O)n2C)cc1` here?
**A.** > 73.5 µM (not active)

**Q.** What about the IC50 (Procathepsin L) of the same compound?
**A.** > 59.6 µM (not active)

**Q.** What about the IC50 (Leucine aminopeptidase) of the same compound?
**A.** 2.59 µM (active)

**Q.** For `CCOc1ccc(C2CC(=O)NC(SCC(=O)OC)=C2C#N)cc1` (centres undefined), which EC50 [11] is on record?
**A.** > 50 µM (active)

**Q.** Which EC50 [11] does the source give for `O=C(CSc1nnc(-c2ccccc2)n1-c1ccc(Cl)cc1)NC1CCS(=O)(=O)C1` (centres undefined) here?
**A.** > 50 µM (active)

**Q.** With `O=C1OC(c2ccccc2)=C/C1=C\c1ccc(-c2ccc([N+](=O)[O-])cc2)o1` as the compound, how does the IC50 [12] read?
**A.** 50 µM (inactive)
